Laboratory results reported in US9221756B2, “Pyrrole derivatives” (priority 2011, dated 2015).

How the values were obtained:
Listeriolysin O (LLO) = Listeriolysin O (LLO) (Listeria monocytogenes serovar 1/2a, UniProt P13128); experiment: Inhibition of the haemolytic activity of Listeriolysin O; type: cell-based; details: toxin LLO; haemolysis assay protocol of Section A
pneumolysin [1] = target: T1, pneumolysin (Streptococcus pneumoniae serotype 2, UniProt Q04IN8); experiment: Ex vivo meningitis assay: effect of pneumolysin on ciliary function of cultured ependymal cells; type: cell-based; details: rat ependymal cells; UL1-012 1.56 μM-25 μM; FIG. 2.A
T1 sequence (Q04IN8 whole entry): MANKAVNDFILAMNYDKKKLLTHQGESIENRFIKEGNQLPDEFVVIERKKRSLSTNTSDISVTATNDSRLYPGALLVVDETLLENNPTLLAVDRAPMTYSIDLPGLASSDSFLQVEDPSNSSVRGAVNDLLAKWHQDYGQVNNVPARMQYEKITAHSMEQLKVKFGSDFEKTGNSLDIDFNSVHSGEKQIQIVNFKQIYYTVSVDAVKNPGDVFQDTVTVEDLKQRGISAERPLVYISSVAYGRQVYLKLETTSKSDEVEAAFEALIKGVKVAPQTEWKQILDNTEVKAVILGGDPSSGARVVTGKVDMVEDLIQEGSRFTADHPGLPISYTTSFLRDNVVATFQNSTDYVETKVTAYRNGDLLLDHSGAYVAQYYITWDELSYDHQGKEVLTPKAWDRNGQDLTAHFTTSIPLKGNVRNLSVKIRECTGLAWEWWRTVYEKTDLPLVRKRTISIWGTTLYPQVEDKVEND
Text: (§1) The ependymal ciliated cells line the cerebral ventricles of the brain and the central canal of the spinal cord and are covered with cilia responsible for the circulation of the cerebrospinal fluid (CSF) around the central nervous system. This layer acts as a selective brain barrier to and from the cerebrospinal fluid and plays a role in controlling the CSF volume. […] This model is based on culturing and differentiating ciliated ependymal cells from neonate rat brains, which recreate the in vivo situation, where cells lining the brain ventricles, are exposed to S. pneumoniae and its toxic products.
(§2) Ependymal cell cultures were prepared by the method previously described [Microb. Pathog. (1999) 27 303-309]. Tissue culture trays were coated with bovine fibronectin and incubated at 37° C. in 5% (v/v) CO2 for 2 h before use. […]
(§3) After approximately two weeks, the cells were fully ciliated and ready for experiments. […] Beating cilia were recorded before and after exposure over 30 min, with a digital high-speed video camera at a rate of 500 frames/s. The recorded video sequences were played back at reduced frame rates and the ciliary beat frequency (CBF) was determined by the following equation: […]

Suilysin (SLY) = Suilysin (SLY) (Streptococcus suis, UniProt Q55996); experiment: Inhibition of the haemolytic activity of Suilysin; type: cell-based; details: toxin SLY; haemolysis assay protocol of Section A
Sequence of Suilysin (SLY) (Q55996 28-497 limits assumed): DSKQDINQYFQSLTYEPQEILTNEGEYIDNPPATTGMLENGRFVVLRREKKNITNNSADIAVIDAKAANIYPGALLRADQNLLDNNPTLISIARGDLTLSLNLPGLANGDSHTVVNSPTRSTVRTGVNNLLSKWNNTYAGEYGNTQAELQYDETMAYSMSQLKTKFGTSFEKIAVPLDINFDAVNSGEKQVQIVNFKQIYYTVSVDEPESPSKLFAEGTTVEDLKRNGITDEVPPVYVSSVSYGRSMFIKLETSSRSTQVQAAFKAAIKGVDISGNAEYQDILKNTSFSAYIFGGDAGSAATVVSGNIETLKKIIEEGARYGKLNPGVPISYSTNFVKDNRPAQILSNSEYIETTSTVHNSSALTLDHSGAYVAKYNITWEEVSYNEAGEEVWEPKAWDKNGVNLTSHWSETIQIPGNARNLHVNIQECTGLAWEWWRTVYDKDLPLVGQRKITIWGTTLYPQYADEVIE

[2] = target: T2, S. pneumoniae cell lysate containing native pneumolysin (Streptococcus pneumoniae serotype 2, UniProt Q04IN8); experiment: Ex vivo meningitis assay: effect of bacterial lysate on ciliary function of cultured ependymal cells; type: cell-based; details: rat ependymal cells; lysate from penicillin-lysed S. pneumoniae; FIG. 2.B
T2 construct: S. pneumoniae cell lysate containing native pneumolysin; endogenous in cells
T2 sequence (Q04IN8 whole entry): as the sequence (Q04IN8 whole entry) above
Text: as §1, §2, §3

[3] = tested on: Human lung epithelial cells (A549); details: concentrations tested, up to approximately 150 times the therapeutic IC50 value
Perfringolysin O (PFO) = Perfringolysin O (PFO) (Clostridium perfringens, UniProt P0C2E9); experiment: cell-based
Sequence of Perfringolysin O (PFO) (P0C2E9 29-500 limits assumed): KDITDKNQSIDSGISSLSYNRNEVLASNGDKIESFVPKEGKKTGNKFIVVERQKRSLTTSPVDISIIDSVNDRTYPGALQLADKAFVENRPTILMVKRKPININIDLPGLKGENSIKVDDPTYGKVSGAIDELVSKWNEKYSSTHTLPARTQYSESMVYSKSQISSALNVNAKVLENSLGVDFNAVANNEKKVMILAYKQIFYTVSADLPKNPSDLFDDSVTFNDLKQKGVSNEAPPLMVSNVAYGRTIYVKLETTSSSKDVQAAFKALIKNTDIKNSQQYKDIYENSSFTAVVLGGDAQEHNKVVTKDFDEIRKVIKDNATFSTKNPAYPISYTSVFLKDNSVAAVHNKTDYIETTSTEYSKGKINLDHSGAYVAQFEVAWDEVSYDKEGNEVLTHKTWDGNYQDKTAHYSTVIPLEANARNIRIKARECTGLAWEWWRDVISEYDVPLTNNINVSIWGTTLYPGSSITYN

[4] = mice receiving the compound alone; highest concentration of UL1-012 (16 mg/kg i.v. every 6 h)
[5] = tested on: Streptococcus pneumoniae strain D39; experiment: In vivo efficacy assay using a mouse pneumonia model; details: MF1 mice
pneumolysin [6] = target: T1, pneumolysin; experiment: Inhibition of the haemolytic activity of pneumolysin (sheep erythrocytes); type: cell-based; details: IC50, inhibition of pneumolysin-induced haemolysis of sheep erythrocytes
Streptolysin O (SLO) = target: T3, Streptolysin O (SLO) (Streptococcus pyogenes serotype M3, UniProt P0DF97); experiment: Inhibition of the haemolytic activity of Streptolysin O; type: cell-based, Group A Streptococci; details: toxin SLO; haemolysis assay protocol of Section A
T3 sequence (P0DF97 34-571): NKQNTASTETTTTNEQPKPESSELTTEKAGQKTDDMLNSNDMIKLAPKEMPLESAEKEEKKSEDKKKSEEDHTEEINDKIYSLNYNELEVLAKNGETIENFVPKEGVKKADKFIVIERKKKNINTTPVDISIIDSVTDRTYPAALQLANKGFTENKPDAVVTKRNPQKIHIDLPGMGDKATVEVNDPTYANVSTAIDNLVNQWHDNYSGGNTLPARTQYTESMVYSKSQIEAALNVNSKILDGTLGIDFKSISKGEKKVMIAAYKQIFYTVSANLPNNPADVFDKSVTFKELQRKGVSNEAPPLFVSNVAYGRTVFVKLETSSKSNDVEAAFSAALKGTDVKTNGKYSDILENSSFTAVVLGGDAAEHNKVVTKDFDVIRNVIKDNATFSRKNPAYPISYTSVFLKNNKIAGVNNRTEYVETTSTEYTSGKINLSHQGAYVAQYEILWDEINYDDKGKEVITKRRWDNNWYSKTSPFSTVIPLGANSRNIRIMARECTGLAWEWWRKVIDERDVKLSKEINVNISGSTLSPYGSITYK

pneumolysin [7] = target: T1, pneumolysin; experiment: Inhibition of pneumolysin-induced lactate dehydrogenase release from A549 cells; type: cell-based
Anthrolysin O (ALO) = Anthrolysin O (ALO) (Bacillus anthracis, UniProt A0A6L7HHW7); experiment: cell-based
Sequence of Anthrolysin O (ALO) (A0A6L7HHW7 35-512 limits assumed): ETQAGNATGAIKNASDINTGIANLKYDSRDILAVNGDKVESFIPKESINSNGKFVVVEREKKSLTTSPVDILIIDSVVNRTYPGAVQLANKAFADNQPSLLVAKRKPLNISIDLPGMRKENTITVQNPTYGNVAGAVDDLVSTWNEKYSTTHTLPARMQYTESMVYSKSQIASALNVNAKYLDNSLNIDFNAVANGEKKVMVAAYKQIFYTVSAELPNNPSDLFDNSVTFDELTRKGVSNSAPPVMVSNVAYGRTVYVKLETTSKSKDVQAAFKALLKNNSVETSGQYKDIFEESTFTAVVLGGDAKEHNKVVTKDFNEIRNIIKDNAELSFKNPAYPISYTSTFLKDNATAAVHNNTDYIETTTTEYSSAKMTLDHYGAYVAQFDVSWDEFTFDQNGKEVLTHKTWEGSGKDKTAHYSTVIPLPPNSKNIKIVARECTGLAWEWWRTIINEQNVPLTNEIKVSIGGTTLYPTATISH

Sequence of Listeriolysin O (LLO) (P13128 25-529): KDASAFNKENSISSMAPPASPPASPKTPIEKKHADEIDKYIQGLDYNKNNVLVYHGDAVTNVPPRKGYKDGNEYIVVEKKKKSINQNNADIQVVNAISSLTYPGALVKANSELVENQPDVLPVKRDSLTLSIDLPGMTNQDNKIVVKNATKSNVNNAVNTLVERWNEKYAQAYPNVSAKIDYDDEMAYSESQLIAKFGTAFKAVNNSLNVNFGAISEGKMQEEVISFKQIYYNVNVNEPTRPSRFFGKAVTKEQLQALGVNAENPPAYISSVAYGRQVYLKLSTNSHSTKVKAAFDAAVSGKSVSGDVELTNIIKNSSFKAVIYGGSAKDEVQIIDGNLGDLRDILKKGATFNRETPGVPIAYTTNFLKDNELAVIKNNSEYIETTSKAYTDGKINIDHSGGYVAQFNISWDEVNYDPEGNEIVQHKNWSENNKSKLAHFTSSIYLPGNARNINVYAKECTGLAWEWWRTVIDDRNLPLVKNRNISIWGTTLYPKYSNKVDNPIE

## CCOC(=O)c1c(O)c(O)c(C(=O)N(C)C)n1-c1ccc(OC)cc1 [UL1-012, ethyl 5-(dimethylcarbamoyl)-3,4-dihydroxy-1-(4-methoxyphenyl)-1H-pyrrole-2-carboxylate]
Listeriolysin O (LLO)
  IC50: < 10 µM
Pneumolysin [1]
  ciliary beating frequency (CBF) in the presence of pneumolysin: No significant loss of the CBF
Suilysin (SLY)
  IC50: < 10 µM
[2]
  ciliary beating frequency (CBF) in the presence of bacterial lysate: significantly prevented the drop of the CBF
[3]
  cytotoxicity (LDH release, compound alone): does not exhibit cytotoxicity
Perfringolysin O (PFO)
  IC50: < 10 µM
[4]
  visible adverse effects: no visible adverse effects
[5]; 4 mg/kg intravenously every 6 h, up to approximately 40 h after infection, p<0.05, FIG. 5
  survival: significant improvement in the survival
[5]; 16 mg/kg intravenously every 6 h, 72 h post infection, p<0.05, FIG. 6
  survival, mice surviving at endpoint: 50%
[5]; 16 mg/kg intravenously every 6 h, p<0.05 at 30 h, 36 h, 60 h and 66 h post-infection, FIG. 7
  disease score (signs of disease): significant attenuation of the signs of the disease
Pneumolysin [6]; class symbols of Table 1
  IC50: < 10 µM
Pneumolysin [6]; specific values
  IC50: 0.15 µM
Streptolysin O (SLO)
  IC50: < 10 µM
Pneumolysin [7]
  IC50: < 0.4 µM
Anthrolysin O (ALO)
  IC50: < 10 µM
